Source: patent US5045566A, “Novel imidate insecticides” (ICI Americas Inc., priority 1989, dated 1991)

Key:
Format in all cases: in vivo
[1] = test system: Housefly [Musca domestica]; experiment: Housefly contact mortality in dishes (HF), 48 hours; conditions: μg of test compound per 25 female flies
Outline: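 LC50, as μg compound per 25 female flies, comes from dosage-mortality curves with doses from 100 μg downward. Residues were made by evaporating acetone plus 0.01% peanut oil in dishes, onto which 1-2-day-old females were caged; deaths were counted after 48 hours.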

[2] = test system: Black Bean Aphid [Aphis fabae (Scop.)]; experiment: Black bean aphid spray test on nasturtium (BBA), 48 hours; conditions: percent of test compound in sprayed solution
Outline: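 LC50, given as percent test compound in the sprayed liquid, was calculated from dosage-mortality curves using concentrations from 0.05% downward. Sprays in 50:50 acetone-water went to runoff on ~5 cm nasturtiums carrying 25-50 aphids of mixed ages, one day after infestation. Deaths were counted 48 h later under greenhouse conditions.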

[3] = test system: Cabbage Looper [Trichoplusia ni (Hubner)]; experiment: Cabbage looper leaf dip (CL), 3-5 days; conditions: percent in solution, second-instar larvae
Outline: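 Steps: dilute compound in 50-50 acetone-water from 0.1% downward; immerse cotyledon pieces 2-3 s and dry; place in humid petri dishes with five second-instar larvae; record mortality at 3-5 days. Dosage-mortality curves yield LC50 as percent in solution.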

[4] = test system: Aster Leafhopper [Macrosteles fascifrens (Stal)]; experiment: Aster leafhopper on dipped oat seedlings (LH), 48 hours; conditions: percent in solution, adults/nymphs
Protocol: The compounds in Tables 1 and 2 above were tested for insecticidal activity using the following testing procedures. LC50 values, based on the results of these tests and calculated according to dosage-mortality curves, are expressed in Table 3.
Aster Leafhopper [Macrosteles fascifrens (Stal)]
Oat seedlings (Avena sp) were grown in a commercial potting soil in cups. When the plants were approximately 10 cm tall they were thinned to three plants per cup and dipped for 2-3 seconds in 50-50 acetone-water solutions of the test compounds. When the plants had dried, a clear plastic tube was placed over them and the bottom end pressed into the cup. Ten aster leafhopper adults/nymphs were then placed in each tube and the tops of the tubes covered with white organdy cloth. Mortality counts were made after 48 hours. Test concentrations ranged from 0.05% down to that at which 50% mortality occurred. The LC50 values are expressed below in Table 3 under the heading "LH" in terms of the percent of the test compound in the solution.

[5] = test system: Maize weevil [Sitophilus zeamais (Motschulsky)]; experiment: Maize weevil on dipped corn seeds (MW), 48 hours; conditions: percent in solution, adult weevils
Outline: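 LC50, given as percent of compound in dipping solution, comes from dosage-mortality curves over concentrations descending from 0.01%. Four corn seeds soaked 2-3 s in 50:50 acetone:water solution were dried and held with 10 adult weevils, about 25° C, mortality read after 48 h.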

[6] = test system: Tobacco Budworm [Heliothis virescens (Fabricius)] eggs; experiment: Tobacco budworm eggs (TBW-E); conditions: percent in solution; 2-day old eggs
Outline: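 Mortality of dipped eggs served as read-out, recorded after untreated controls hatched and began feeding. Treatments used acetone solutions from 0.1% downward, with eggs incubated at 78° F; LC50 is expressed as percent of compound in the solution.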

Row | SMILES | LC50 HF [1] | LC50 BBA [2] | LC50 CL [3] | LC50 LH [4] | LC50 MW [5] | LC50 TBW E (eggs) [6]
1 | CC1(C(=Nc2ccc(Cl)cc2)OCc2cccc(Oc3ccccc3)c2)CC1 [Compound 5] | 21 µg | 0.001% | 0.005% | > 0.05% | > 0.01% | –
2 | C=C(C)C(=Nc1ccc(Cl)cc1)OCc1cccc(Oc2ccccc2)c1 [Compound 6] | 17 µg | 0.001% | 0.02% | > 0.05% | > 0.01% | 0.015%
3 | CCC(=Nc1ccc(Cl)cc1)OCc1cccc(Oc2ccccc2)c1 [Compound 11] | 6 µg | 0.01% | 0.025% | > 0.05% | > 0.01% | > 0.1%
4 | CC(C)C(=Nc1cc(Cl)ccc1Cl)OCc1cccc(Oc2ccccc2)c1 [Compound 13] | > 100 µg | 0.003% | 0.014% | > 0.05% | > 0.01% | > 0.1%
5 | CC(C)C(=Nc1ccccc1Cl)OCc1cccc(Oc2ccccc2)c1 [Compound 17] | 75 µg | 0.03% | 0.03% | > 0.05% | > 0.01% | > 0.1%
6 | N#CC(=Nc1ccc(Cl)cc1)OCc1cccc(Oc2ccccc2)c1 [Compound 21] | 7 µg | > 0.1% | 0.02% | > 0.05% | > 0.01% | > 0.1%
7 | CC(C)(C)C(=Nc1ccc(Cl)c(Cl)c1)OCc1cccc(Oc2ccccc2)c1 [Compound 25] | > 100 µg | > 0.1% | 0.01% | > 0.05% | > 0.01% | > 0.1%
8 | FC(F)(F)C(=Nc1ccc(Cl)cc1)OCc1cccc(Oc2ccccc2)c1 [Compound 35] | 15 µg | – | 0.008% | > 0.05% | > 0.01% | 0.03%
9 | CCOC(=O)c1cc(N=C(OCc2cccc(Oc3ccccc3)c2)C(C)C)ccc1Cl [Compound 102] | > 100 µg | 0.05% | 0.075% | > 0.05% | – | > 0.1%
10 | CC(C)(Cl)C(=Nc1ccc(C#N)c(Cl)c1)OCc1cccc(Oc2ccccc2)c1 [Compound 108] | 44 µg | 0.01% | 0.002% | > 0.01% | – | > 0.1%
11 | CC(C)C(=Nc1c(F)cc(F)cc1Br)OCc1cccc(Oc2ccccc2)c1 [Compound 129] | > 100 µg | 0.03% | 0.005% | 0.01% | – | > 0.1%
12 | CC(C)C(=Nc1ccc(Br)cc1)OCc1cccc(Oc2ccccc2)c1 [Compound 131] | 17 µg | 0.003% | 0.0045% | 0.005% | – | > 0.1%
13 | CC(C)(C)C(=Nc1ccc(Br)cc1)OCc1cccc(Oc2ccccc2)c1 [Compound 135] | > 100 µg | > 0.05% | 0.004% | > 0.05% | – | > 0.1%
14 | CC(C)C(=Nc1ccc(I)cc1)OCc1cccc(Oc2ccccc2)c1 [Compound 137] | 18 µg | 0.03% | 0.003% | 0.008% | – | 0.04%
15 | CCc1cccc(N=C(OCc2cccc(Oc3ccccc3)c2)C(C)C)c1 [Compound 154] | 25 µg | 0.002% | 0.004% | > 0.05% | – | 0.1%
16 | CCc1ccc(N=C(OCc2cccc(Oc3ccc(F)cc3)c2)C(C)C)cc1 [Compound 159] | 25 µg | 0.001% | 0.001% | 0.0025% | – | 0.08%

Row | SMILES | LC50 HF [1] | LC50 BBA [2] | LC50 CL [3] | LC50 LH [4] | LC50 MW [5] | LC50 TBW E (eggs) [6]
17 | CCc1ccc(N=C(OCc2cccc(Oc3ccccc3)c2)C(C)C)cc1 [Compound 161] | 15 µg | 0.0006% | 0.0014% | 0.002% | – | 0.07%
18 | CCc1cccc(N=C(OCc2cccc(Oc3ccccc3)c2)C(C)(C)C)c1 [Compound 162] | > 100 µg | > 0.05% | 0.035% | > 0.05% | – | > 0.1%
19 | CC(C)C(=Nc1ccc2c(c1)CCC2)OCc1cccc(Oc2ccccc2)c1 [Compound 187] | 15 µg | 0.001% | 0.0025% | 0.0025% | – | > 0.1%
20 | CC(C)C(=Nc1ccc(Cl)cc1)OCc1cccc(Oc2ccc(F)cc2)c1 [Compound 189] | 17 µg | – | 0.00027% | 0.002% | > 0.01% | 0.07%
21 | CC(C)C(=Nc1ccc(Cl)c(C(F)(F)F)c1)OCc1cccc(Oc2ccc(F)cc2)c1 [Compound 193] | 100 µg | – | 0.00075% | 0.001% | > 0.01% | > 0.1%
22 | Cc1ccc(Oc2cccc(COC(=Nc3ccc(F)c(Cl)c3)C(C)C)c2)cc1 [Compound 225] | > 100 µg | 0.006% | 0.0025% | > 0.05% | – | > 0.1%
23 | CC(C)C(=Nc1ccc(C(C)C)cc1)OCc1cccc(Oc2ccc(F)cc2)c1 [Compound 228] | > 100 µg | 0.01% | 0.0025% | > 0.05% | – | > 0.1%
24 | CC(C)C(=Nc1ccc2c(c1)OC(C)(C)O2)OCc1ccc(F)c(Oc2ccccc2)c1 [Compound 242] | < 100 µg | < 0.05% | 0.00025% | > 0.05% | – | > 0.1%
25 | CSc1ccc(Oc2cccc(COC(=Nc3ccc(F)cc3)C(C)C)c2)cc1 [Compound 257] | > 100 µg | 0.05% | 0.008% | > 0.05% | – | > 0.1%
26 | Fc1ccc(Oc2cccc(COC(=Nc3ccc(F)c(Cl)c3)C(F)(F)C(F)(F)F)c2)cc1 [Compound 258] | > 100 µg | 0.01% | 0.003% | > 0.05% | – | > 0.1%
27 | CC(C)C(=Nc1ccc(Cl)cc1)OC(C)c1cccc(Oc2ccccc2)c1 (stereo not shown) [Compound 457] | > 100 µg | > 0.05% | 0.009% | > 0.05% | – | > 0.05%
28 | CC(C)C(=Nc1ccc2c(c1)OCO2)OCc1cccc(Oc2ccc(Cl)cc2)n1 [Compound 466] | 13 µg | – | 0.0008% | > 0.05% | 0.01% | > 0.1%
29 | COCc1c(F)c(F)c(COC(=Nc2ccc(F)c(Cl)c2F)C(C)C)c(F)c1F [Compound 522] | – | 0.002% | > 0.1% | 0.05% | > 0.01% | > 0.1%
30 | CC(C)C(=Nc1cccc(C(F)(F)F)c1)OCc1cc(Oc2ccc(F)cc2)ccn1 [Compound 528] | – | > 0.05% | 0.0075% | > 0.05% | > 0.01% | > 0.1%
31 | CC(C)C(=Nc1ccc(F)c(Cl)c1)OCc1cc(Oc2ccc(F)cc2)ccn1 [Compound 529] | – | > 0.05% | > 0.0025% | > 0.05% | > 0.01% | > 0.1%
32 | CC(C)C(=Nc1ccc(OC(F)(F)F)cc1)OCc1cccc(Cc2ccccc2)c1 [Compound 538] | 75 µg | – | > 0.1% | > 0.05% | > 0.01% | > 0.1%
